Assay results reported in the NIST ThermoML archive (doi:10.1021/je700411p).

Columns and labels:
[1] = refractive index (Na D-line) (dimensionless); details: 298.15 K; 101.33 kPa; Liquid; Standard Abbe refractometry
[2] = Liquid; for mass density: 298.15 K, 101.33 kPa

CC(=O)O [acetic acid]
Details | mass density [kg/m3] | refractive index
[1] | – | 1.3696
[2] | 1043.9 | –

[2], Ebulliometric method (Recirculating still)
Details | vapor or sublimation pressure [kPa]
328.56 K | 9.98
330.65 K | 10.97
332.65 K | 11.98
336.23 K | 13.97
339.41 K | 15.97
342.25 K | 17.98
344.81 K | 19.98
347.19 K | 21.98
349.4 K | 23.98
352.43 K | 26.97
355.18 K | 29.96
357.72 K | 32.98
360.09 K | 35.94
362.26 K | 38.96
365 K | 42.93
366.3 K | 44.95
369.3 K | 49.94
372.09 K | 54.93
374.63 K | 59.83
377.03 K | 64.87
379.25 K | 69.84
381.39 K | 74.82
383.35 K | 79.71
385.23 K | 84.52
387.1 K | 89.81
388.77 K | 94.52
390.91 K | 101.3

CCCCO [butan-1-ol]
Details | mass density [kg/m3] | refractive index
[1] | – | 1.396
[2] | 805.6 | –

Details | vapor or sublimation pressure [kPa]
[2], 390.46 K | 101.3

CCCCOC(C)=O [butyl ethanoate]
Details | mass density [kg/m3] | refractive index
[1] | – | 1.3916
[2] | 876.02 | –

[2], Ebulliometric method (Recirculating still)
Details | vapor or sublimation pressure [kPa]
334.36 K | 9.99
336.53 K | 10.98
338.56 K | 11.99
342.2 K | 13.97
345.47 K | 15.99
348.37 K | 17.97
351.02 K | 19.98
353.45 K | 21.97
355.72 K | 23.97
357.84 K | 25.98
359.79 K | 27.92
362.58 K | 30.98
365.1 K | 33.92
367.5 K | 36.96
369.74 K | 39.97
373.18 K | 44.92
376.31 K | 49.9
379.18 K | 54.92
381.89 K | 59.93
384.4 K | 64.95
386.74 K | 69.92
388.96 K | 74.95
391.05 K | 79.91
393.02 K | 84.83
394.94 K | 89.87
396.72 K | 94.73
399.05 K | 101.3
